# Data published in patent publication EP4682149A1 (Prime Gene Therapeutics Co., Ltd., priority 2023, dated 2024).
# Assays:
# [1] = test system: JAK1/2/3; assay: Enzymatic activity (IC50) test, Lance Ultra TR-FRET; settings: JAK1/2/3 kinase platform; kinase not given
# [2] = Stability investigation (HPLC purity at 220 nm and XRD); format: physicochemical; settings: for chemical stability / crystal form change: 40°C/75%RH and 25°C/60%RH for 7 days
# Procedure: The analysis method is as follows: Octadecylsilane bonded silica gel was used as the filler (Kromasil C 18 4.6 mm × 250 mm, 5 µm); 0.01 mol/L potassium dihydrogen phosphate solution (pH was adjusted to 3.0 with phosphoric acid) was used as mobile phase A, and methanol was used as mobile phase B. Gradient elution was performed according to the table below; the detection wavelength was 220 nm; the column temperature was 40°C; the flow rate was 1.0 ml/min; the injection volume was 10 µl, and the HPLC purity was calculated by the area normalization method.
# Appropriate amounts of Form III, IV, and V were weighed in sample bottles and stored uncovered at 80°C, 40°C/75% RH, and 25°C/60% RH for 7 days. Samples were collected at 0, 1, 3, and 7 days for HPLC and XRD analysis. Table 7 Stability test results of Form III, IV and V
# [3] = Pharmacokinetic (PK) determination in adult Beagle dogs; format: in vivo
# Procedure: Healthy adult male Beagle dogs were obtained from Beijing Marshall Biotechnology Co., Ltd. Three groups were divided into this study and administered via oral gavage at a dose of 19.5 mg/kg. Animals receiving oral gavage were fasted overnight and from 10 hours before to 4 hours after administration. Blood samples were collected 15 minutes, 30 minutes, 45 minutes, 1 hour, 1.5 hours, 3 hours, 4 hours, 6 hours, 8 hours, and 24 hours after gavage. Blood samples (1 mL) were collected from the forelimb vein or other suitable venous sampling methods and placed in labeled EDTA-K2 anticoagulant tubes. After gentle inversion to thoroughly mix the anticoagulant with the blood, the tubes were immediately placed on wet ice. Plasma was separated by centrifugation within 1 hour of blood collection in the condition of 4°C, 2200g, and 10 minutes. The separated plasma was placed in labeled EP tubes. Plasma samples were immediately stored in an ultra-low temperature freezer until analysis. Plasma samples should be stored in a refrigerator at -70°C before testing. Plasma samples were extracted using protein precipitation, and the extracts were analyzed by LC/MS/MS.
# [4] = Solubility determination in buffer solutions (HPLC); format: physicochemical; settings: for solubility: 37°C
# Procedure: Appropriate amounts of Forms III, IV, and V were weighed and added to buffer solutions with pH 4.5 and 6.8 to prepare a suspension at 5 mg/mL. The resulting suspension was stirred at 37°C, and samples were collected and analyzed at 5, 30, 60, and 240 minutes. Use a syringe to draw approximate 1 mL of the suspension, filter it through a membrane filter, and dilute it several times before testing the resulting filtrate with HPLC, using the area normalization method to determine the solubility. Table 8 Tests of different crystal forms at various pH values
# [5] = Competitive slurry test (XRD of the solid); format: physicochemical; settings: for form transformation in competitive slurry: ethanol/water (1/1) (80°C), acetonitrile (70°C), acetonitrile/water (70°C)
# Procedure: The relative stability of Form II and Form III was investigated by competitive slurry test. Approximately 5 mg of Form II and Form III were weighed, mixed, and then added in 1/1 ratio of methanol/n-heptane, ethanol and ethyl acetate, respectively, to prepare a suspension. The suspension was stirred at room temperature for several hours, then centrifuged and the solid was analyzed by XRD.
# Competitive slurry studies were conducted to investigate the relative stability of Forms III, IV, and V. 5 mg of Forms III, IV, and V were weighed and mixed uniformly. Suspensions were prepared respectively in ethanol (80°C), ethanol/water (1/1) (80°C), water (60°C), water (25°C), acetonitrile (70°C), and acetonitrile/water (1/1) (70°C). The suspensions were stirred for 12 hours, and the solids were centrifuged and analyzed by XRD. Table 6: Competitive slurry results of Forms III, IV and V
# [6] = Determination of bioavailability in adult SD rats; format: in vivo; settings: Sprague-Dawley, rat, plasma, female SD rats
# Procedure: Healthy adult female Sprague-Dawley rats were obtained from Beijing Weitong Lihua Laboratory Animal Technology Co., Ltd. The study was conducted in two phases: first, animals received a single intravenous injection of 1 mg/kg; second, one week later, the same group received a single oral gavage of the suspension at a dose of 10 mg/kg. Animals receiving oral gavage were fasted overnight and from 10 hours before to 4 hours after administration. Animals in the intravenous group were not restricted to food. Blood samples were collected at 0.083, 0.25, 0.5, 1, 2, 4, 6, 8, and 24 hours after administration for the intravenous group and at 0.25, 0.5, 1, 2, 4, 8, and 24 hours after administration for the oral group. After isoflurane anesthesia by using a small animal anesthesia machine, 0.4 ml of whole blood was obtained from the retinal venous plexus. The sample was centrifuged at 4000 rpm for 20 minutes at 4°C. Plasma was separated and placed in labeled EP tubes. Plasma samples were immediately stored in an ultra-low temperature freezer until analysis. Plasma samples should be stored in a refrigerator at -70°C before testing. Plasma samples were extracted using protein precipitation, and the extracts were analyzed by LC/MS/MS.
# [7] = male Beagle dogs, oral gavage 19.5 mg/kg
# [8] = male Beagle dogs, oral gavage 19.5 mg/kg, 19.5 mg/kg
SMILES,220nm (HPLC purity) ([2]; 0 days) [%],"220nm (HPLC purity) ([2]; 25°C/60%RH, 3 days, uncovered) [%]","220nm (HPLC purity) ([2]; 25°C/60%RH, 7 days, uncovered) [%]","220nm (HPLC purity) ([2]; 40°C/75%RH, 3 days, uncovered) [%]","220nm (HPLC purity) ([2]; 40°C/75%RH, 7 days, uncovered) [%]",chemical stability ([2]; 80°C),crystal form change ([2]; 80°C),"220nm (HPLC purity) ([2]; 80°C, 1 day, uncovered) [%]","220nm (HPLC purity) ([2]; 80°C, 3 days, uncovered) [%]","220nm (HPLC purity) ([2]; 80°C, 7 days, uncovered) [%]","AUC 0-inf [3, 8] [ng·h/mL]","AUC 0-t [3, 8] [ng·h/mL]","C max [3, 8] [ng/mL]","solubility ([4]; PH=4.5 buffer, 5 min) [µg/mL]","solubility ([4]; PH=4.5 buffer, 30 min) [µg/mL]","solubility ([4]; PH=4.5 buffer, 60 min) [µg/mL]","solubility ([4]; PH=4.5 buffer, 240 min) [µg/mL]","solubility ([4]; pH=6.8 buffer, 5 min) [µg/mL]","solubility ([4]; pH=6.8 buffer, 30 min) [µg/mL]","solubility ([4]; pH=6.8 buffer, 60 min) [µg/mL]",further results
"N#CCC1(n2cc(-c3ncnc4[nH]ccc34)cn2)CN(C2CCN(C(=O)c3ccnc(C(F)(F)F)c3F)CC2)C1 [Itacitinib, reference compound]",–,–,–,–,–,–,–,–,–,–,–,–,–,–,–,–,–,–,–,–,IC50 [1]: < 10 nM
N#CCC1(n2cc(-c3ncnc4[nH]ccc34)c(N)n2)CN(C2CCN(C(=O)c3ccnc(C(F)(F)F)c3F)CC2)C1 [listing 1 of 3 here],99.57,99.59,99.63,99.53,99.63,relatively stable,did not change,99.57,99.60,99.57,27789,27750,6197,47.1,65.6,70,73.4,24.7,37.2,40.2,"pharmacokinetic properties after PO administration ([3]; comparison of the crystal forms): better pharmacokinetic properties; Tmax [3, 7]: 1.00 h; t 1/2 [3, 8]: 2.63 h; solubility relative to Form V ([4]; pH = 4.5 (postprandial gastric juice), 240 min): twice that of Form V; solubility relative to Form V ([4]; pH = 6.8 (simulated intestinal fluid), 240 min): twice that of Form V; solubility ([4]; pH=6.8 buffer, 240 min): 40.2 µg/mL; relative stability of the forms ([5]; conclusion from competitive slurry of Forms III, IV, V): the most stable of the five forms; AUC 0-inf ([6]; IV (1 mg/kg)): 456 ng·h/mL; half-life ([6]; IV (1 mg/kg)): 0.61 h; clearance ([6]; IV (1 mg/kg), read-out: Cl s,app): 37.7 mL/min/kg; Vd ([6]; IV (1 mg/kg), read-out: VZ): 1.5 L/kg; bioavailability ([6]; PO (10 mg/kg) vs IV (1 mg/kg)): 17%; AUC 0-inf ([6]; PO (10 mg/kg), suspension): 783 ng·h/mL; Cmax ([6]; PO (10 mg/kg), suspension): 475 ng/mL; Tmax ([6]; PO (10 mg/kg), suspension): 0.5 h; half-life ([6]; PO (10 mg/kg), suspension): 1.9 h"
N#CCC1(n2cc(-c3ncnc4[nH]ccc34)c(N)n2)CN(C2CCN(C(=O)c3ccnc(C(F)(F)F)c3F)CC2)C1 [listing 2 of 3 here],99.83,99.90,99.95,99.89,99.90,relatively stable,did not change,99.90,99.89,99.91,13248,13174,4057,41.3,60.1,65.5,84,11.2,29.9,33.2,"Tmax ([3]; dog, plasma, male Beagle dogs, oral gavage 19.5 mg/kg, read-out: Tmax): 1 h; half-life ([3]; male, beagle, dog, plasma, po, 19.5 mg/kg, male Beagle dogs, oral gavage 19.5 mg/kg): 2.45 h; solubility ([4]; pH=6.8 buffer, 240 min): 41.5 µg/mL; relative stability of Form II and Form III ([5]; Form II and Form III mixed, methanol/n-heptane 1/1, ethanol, ethyl acetate, room temperature, several hours, XRD): more stable than Form II; form transformation in competitive slurry [5]: transformed into Form IV"
N#CCC1(n2cc(-c3ncnc4[nH]ccc34)c(N)n2)CN(C2CCN(C(=O)c3ccnc(C(F)(F)F)c3F)CC2)C1 [listing 3 of 3 here],98.02,98.10,97.87,98.02,98.01,relatively stable,did not change,98.05,98.03,98.02,8431,8354,2440,11.2,25.8,28.9,35.6,7.6,13.3,16,"Tmax [3, 7]: 1.00 h; t 1/2 [3, 8]: 2.86 h; solubility ([4]; pH=6.8 buffer, 240 min): 19 µg/mL; form transformation in competitive slurry [5]: transformed into Form IV"
"N#CCC1(n2cc(-c3ncnc4[nH]ccc34)c(N)n2)CN(C2CCN(Cc3ccnc(C(F)(F)F)c3F)CC2)C1 [compound of formula I (amorphous form), 2-(3-(3-amino-4-(7H-pyrrolo[2,3-d]pyrimidin-4-yl)-1H-pyrazol-1-yl)-1-(1-(3-fluoro-2-(trifluoromethyl)isonicotinyl)piperidin-4-yl)azetidin-3-yl)acetonitrile]",–,–,–,–,–,–,–,–,–,–,–,–,–,–,–,–,–,–,–,–,IC50 [1]: < 10 nM
